T1: A. aeolicus RNR (AaR1 + AaR2) (Aquifex aeolicus, UniProt O66503)
T1 construct: gene nrdA; full length AaR1 and AaR2 (construct lacking the 346-residue intein, equal to mature R2; natural precursor contains the intein), N-terminal His tags with thrombin site, E. coli expression; R2 42 kDa; with Ribonucleoside-diphosphate reductase subunit beta
T1 sequence (O66503 1-801): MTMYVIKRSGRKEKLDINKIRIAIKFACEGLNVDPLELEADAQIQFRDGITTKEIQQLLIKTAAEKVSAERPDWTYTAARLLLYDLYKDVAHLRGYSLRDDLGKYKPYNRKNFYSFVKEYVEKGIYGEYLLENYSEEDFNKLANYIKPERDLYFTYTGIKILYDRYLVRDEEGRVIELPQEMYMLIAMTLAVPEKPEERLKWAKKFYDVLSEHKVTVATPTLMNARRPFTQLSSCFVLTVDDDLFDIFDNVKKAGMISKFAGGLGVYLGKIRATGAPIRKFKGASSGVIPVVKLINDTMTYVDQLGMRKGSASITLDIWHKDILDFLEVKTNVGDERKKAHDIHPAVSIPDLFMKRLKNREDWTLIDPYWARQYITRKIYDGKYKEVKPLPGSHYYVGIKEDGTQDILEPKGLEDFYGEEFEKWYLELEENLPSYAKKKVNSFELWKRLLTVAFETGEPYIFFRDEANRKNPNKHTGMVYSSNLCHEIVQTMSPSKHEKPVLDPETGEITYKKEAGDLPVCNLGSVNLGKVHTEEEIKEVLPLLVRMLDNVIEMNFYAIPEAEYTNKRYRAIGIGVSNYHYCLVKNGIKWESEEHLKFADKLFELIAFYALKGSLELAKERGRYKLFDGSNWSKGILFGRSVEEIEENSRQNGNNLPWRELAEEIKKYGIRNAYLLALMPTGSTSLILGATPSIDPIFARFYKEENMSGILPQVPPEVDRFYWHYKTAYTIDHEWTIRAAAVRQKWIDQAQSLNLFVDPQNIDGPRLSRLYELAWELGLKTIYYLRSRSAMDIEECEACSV
T1 sequence (O67475 1-229 partner): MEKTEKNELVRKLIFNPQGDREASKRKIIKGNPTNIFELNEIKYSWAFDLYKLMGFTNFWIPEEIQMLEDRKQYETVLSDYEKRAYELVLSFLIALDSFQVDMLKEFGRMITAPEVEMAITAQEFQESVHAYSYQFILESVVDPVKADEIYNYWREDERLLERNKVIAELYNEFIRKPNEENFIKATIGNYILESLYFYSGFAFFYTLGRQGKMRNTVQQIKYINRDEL
T1 sequence (O67475 576-696 partner): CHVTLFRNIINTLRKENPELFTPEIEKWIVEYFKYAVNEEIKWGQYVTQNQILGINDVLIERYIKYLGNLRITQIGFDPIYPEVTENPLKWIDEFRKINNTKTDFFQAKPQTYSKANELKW

T2: AaR1 (Aquifex aeolicus, UniProt O66503)
T2 construct: gene nrdA; full length, N-terminal His tag and thrombin site (pET-28a), expressed in E. coli BL21(DE3); 93 kDa; monomer-dimer equilibrium
T2 sequence (O66503 1-801): T1 sequence (O66503 1-801)

B1: Aquifex aeolicus ribonucleotide reductase R1 protein (α-subunit) (enzyme, UniProt O66503 1-801, looked up)
chain: T1 sequence (O66503 1-801)
notes: Class I ribonucleotide reductase large (α) subunit R1, NrdAh subclass, Aquifex aeolicus; full length, synthetic gene (Genscript) in pET-28a(+) with N-terminal His tag and thrombin cleavage site; theoretical mass of the polypeptide 93 kDa; Homodimer in the crystal; monomer-dimer equilibrium in GEMMA and SEC; No removal of the His tag by thrombin is described; also called AaR1; NrdAh; source: E. …
B2: Aquifex aeolicus ribonucleotide reductase R2 protein (β-subunit), from a construct lacking the intein (enzyme, UniProt O67475 1-229, looked up)
chain: MEKTEKNELVRKLIFNPQGDREASKRKIIKGNPTNIFELNEIKYSWAFDLYKLMGFTNFWIPEEIQMLEDRKQYETVLSDYEKRAYELVLSFLIALDSFQVDMLKEFGRMITAPEVEMAITAQEFQESVHAYSYQFILESVVDPVKADEIYNYWREDERLLERNKVIAELYNEFIRKPNEENFIKATIGNYILESLYFYSGFAFFYTLGRQGKMRNTVQQIKYINRDELCHVTLFRNIINTLRKENPELFTPEIEKWIVEYFKYAVNEEIKWGQYVTQNQILGINDVLIERYIKYLGNLRITQIGFDPIYPEVTENPLKWIDEFRKINNTKTDFFQAKPQTYSKANELKW
notes: Class I ribonucleotide reductase small (β) subunit R2, Aquifex aeolicus; Leu229 is joined to Cys230; The natural gene product carries the intein between Leu229 and Cys230; Theoretical mass of the polypeptide 42 kDa. numbers count on: the mature protein (intein removed); Homodimer in the crystal, GEMMA and SEC; No removal of the His tag is described; also called AaR2; mature AaR2; source: E. coli …

What was measured:
[1] = target: T1, A. aeolicus RNR (AaR1 + AaR2); assay: HPLC NDP reduction assay; assay type: biochemical; details: pH 6.8, 79 °C
AaR1 = target: T2, AaR1; assay: GEMMA, effector-induced R1 dimerization; assay type: binding; details: allosteric; 100 µM dATP, equimolar Mg acetate, 300 mM ammonium acetate pH 7.5, preincubated at 78 °C
[2] = target: the molecule itself; assay: GEMMA (gas-phase electrophoretic mobility macromolecule analysis); individual R1 or R2 at 0.25 μM, 300 mM ammonium acetate pH 7.5, 0.005% Tween 20, without or with 300 μM ATP or 100 μM dATP (equimolar magnesium acetate); preincubated 2 min at 78 °C, analysed at room temperature
[3] = target: B1; assay: SEC; equimolar AaR1 and AaR2, 20 μM, with ATP and MgCl2; Superdex 200 PC 3.2/30, 20 mM Hepes pH 7.4, 75 mM NaCl, 0.2 mM TCEP; preincubated 5 min at 70 °C, run at 7 °C; top peak fraction analysed by SDS-PAGE; details: both partners purified

Nc1ncnc2c1ncn2[C@@H]1O[C@H](COP(=O)(O)OP(=O)(O)OP(=O)(O)O)[C@@H](O)[C@H]1O [ATP]
HPLC NDP reduction assay ([1]; allosteric activator, 2 mM ATP, four substrates 0.5 mM each, 10 mM DTT, 10 mM Mg acetate, titration with CDP in Figure S3): ATP induces the reduction of CDP and UDP

Nc1nc2c(ncn2[C@@H]2O[C@H](COP(=O)(O)OP(=O)(O)O)[C@@H](O)[C@H]2O)c(=O)[nH]1 [GDP]
HPLC NDP reduction assay ([1]; 0.5 mM GDP with CDP, ADP and UDP, dTTP effector 2 mM, 10 mM DTT): specific activities for the conversion of CDP, UDP, GDP, and ADP to their corresponding dNDPs

Nc1ncnc2c1ncn2[C@H]1C[C@H](O)[C@@H](COP(=O)(O)OP(=O)(O)OP(=O)(O)O)O1 [dATP]
GEMMA, effector-induced R1 dimerization (AaR1): Allosteric effectors stimulated R1 dimerization, although complete conversion to dimers was not obtained

Nc1nc2c(ncn2[C@H]2C[C@H](O)[C@@H](COP(=O)(O)OP(=O)(O)OP(=O)(O)O)O2)c(=O)[nH]1 [dGTP]
HPLC NDP reduction assay ([1]; allosteric effector, s-site, induces ADP reduction, 2 mM dGTP, four substrates 0.5 mM each): dTTP and dGTP induce the reduction of GDP and ADP, respectively

B1
stoichiometry N [2]: 2

B2
stoichiometry N [3]: 1 AaR1:AaR2
stoichiometry N [2]: 2
